# Assay results taken from BindingDB's records for doi:10.1021/jm9707028 (Boehringer Ingelheim Pharmaceuticals, 1998).
# Legend:
# Test in all cases: HIV-1 RT Assay
# [1] = molecular target: T1, Gag-Pol polyprotein [600-1027,G789A]/[600-1155,G789A] (Human immunodeficiency virus 1, UniProt P03366, G789A)
# T1 construct: 600-1027; 600-1155
# [2] = molecular target: T2, Gag-Pol polyprotein [600-1027,K702N]/[600-1155,K702N] (Human immunodeficiency virus 1, UniProt P03366, K702N)
# T2 construct: 600-1027; 600-1155
# [3] = molecular target: T3, Gag-Pol polyprotein [600-1027,P835L]/[600-1155,P835L] (Human immunodeficiency virus 1, UniProt P03366, P835L)
# T3 construct: 600-1027; 600-1155
# [4] = molecular target: T4, Gag-Pol polyprotein [600-1027,V705A]/[600-1155,V705A] (Human immunodeficiency virus 1, UniProt P03366, V705A)
# T4 construct: 600-1027; 600-1155
Structure (SMILES),IC50 [1],IC50 [2],IC50 [3],IC50 [4]
"CCN1c2ncc(CCc3ccncc3)cc2C(=O)N(C)c2ccc(Cl)nc21 [2,8-Substituted Dipyridodiazepinone 37]",30 nM,120 nM,110 nM,550 nM
"CCN1c2ncc(CCc3ccccc3)cc2C(=O)N(C)c2ccc(Cl)nc21 [2,8-Substituted Dipyridodiazepinone 36]",120 nM,50 nM,710 nM,840 nM
